# Values of other authors as cited in patent US20080286341A1, “Buffered coated nicotine containing products” (priority 2007, published 2008).
# What was measured:
# [1] = from Handbook of Chemistry and Physics, 85th edition
# [2] = smoking a cigarette
SMILES,pKa value (in interval 8.0-9.6) [1],time to reach the brain after inhalation [2]
NC(=O)C[C@H](N)C(=O)O [Aspargine],8.73,–
"CN1CCCC1c1cccnc1 (centres unmarked) [nicotine, 3-(1-methyl-2-pyrrolidinyl)-pyridine]",–,ten
